Measured values published in US8822462B2, “Subunit selective NMDA receptor potentiators for the treatment of neurological conditions” (Emory University, priority 2009, dated 2014).

How the values were obtained:
NR1/NR2A = target: T1, NR1/NR2A (Homo sapiens, UniProt Q12879); test: Two electrode voltage clamp, Xenopus laevis oocytes expressing NR1/NR2A; type: cell-based; settings: read-out: 2A percent effect at the maximum tested concentration
T1 construct: expressed in transfected cells; host or cells: Xenopus laevis oocytes
T1 sequence (Q12879 23-1464, species assumed, other chains not shown): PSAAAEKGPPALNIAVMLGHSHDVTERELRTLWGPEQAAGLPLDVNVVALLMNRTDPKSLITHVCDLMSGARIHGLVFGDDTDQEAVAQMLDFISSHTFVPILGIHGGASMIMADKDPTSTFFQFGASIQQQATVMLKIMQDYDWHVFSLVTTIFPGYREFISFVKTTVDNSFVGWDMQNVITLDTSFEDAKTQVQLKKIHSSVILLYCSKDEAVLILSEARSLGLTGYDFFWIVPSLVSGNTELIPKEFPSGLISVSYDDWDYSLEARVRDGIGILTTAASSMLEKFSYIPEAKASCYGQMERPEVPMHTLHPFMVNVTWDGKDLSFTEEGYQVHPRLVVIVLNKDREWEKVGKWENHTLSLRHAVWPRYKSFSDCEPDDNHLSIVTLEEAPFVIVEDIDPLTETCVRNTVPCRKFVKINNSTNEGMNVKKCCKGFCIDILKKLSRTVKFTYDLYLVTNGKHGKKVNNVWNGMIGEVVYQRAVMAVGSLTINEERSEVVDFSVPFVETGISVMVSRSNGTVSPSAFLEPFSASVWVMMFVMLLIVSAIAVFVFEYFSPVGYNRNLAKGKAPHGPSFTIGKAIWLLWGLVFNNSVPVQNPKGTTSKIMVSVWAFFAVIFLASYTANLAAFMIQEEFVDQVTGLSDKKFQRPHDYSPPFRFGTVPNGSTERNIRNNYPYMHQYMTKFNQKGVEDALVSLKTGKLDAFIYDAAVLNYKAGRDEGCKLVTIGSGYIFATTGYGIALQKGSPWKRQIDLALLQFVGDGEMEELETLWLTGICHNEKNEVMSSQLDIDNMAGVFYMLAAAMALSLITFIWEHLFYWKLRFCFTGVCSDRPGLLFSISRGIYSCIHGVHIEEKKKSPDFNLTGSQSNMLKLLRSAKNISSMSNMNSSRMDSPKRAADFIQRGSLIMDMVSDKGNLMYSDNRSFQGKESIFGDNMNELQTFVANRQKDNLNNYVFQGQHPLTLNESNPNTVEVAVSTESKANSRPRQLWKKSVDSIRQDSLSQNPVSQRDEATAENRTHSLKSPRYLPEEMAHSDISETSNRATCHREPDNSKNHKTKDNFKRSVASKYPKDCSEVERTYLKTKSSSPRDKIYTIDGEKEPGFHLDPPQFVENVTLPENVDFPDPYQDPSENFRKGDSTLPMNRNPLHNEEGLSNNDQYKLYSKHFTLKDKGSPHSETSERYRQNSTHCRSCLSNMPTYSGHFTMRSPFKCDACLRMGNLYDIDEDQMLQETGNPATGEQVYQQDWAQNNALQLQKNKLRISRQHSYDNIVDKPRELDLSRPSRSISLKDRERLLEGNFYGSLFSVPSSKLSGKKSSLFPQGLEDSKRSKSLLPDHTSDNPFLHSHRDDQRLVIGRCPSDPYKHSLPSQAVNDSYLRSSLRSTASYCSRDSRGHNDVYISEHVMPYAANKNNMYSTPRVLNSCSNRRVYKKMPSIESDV
Description: (§1) In the table above, potency is expressed as fitted EC50 value to average composite concentration-effect data constructed from current responses recorded under two electrode voltage clamp from Xenopus laevis oocytes expressing either NR1/NR2A, B, C, or D, GluR1, or GluR6. No effect means less than 20% change in response amplitude at 30 μM of drug.

NR1/NR2C = target: T2, NR1/NR2C (Homo sapiens, UniProt Q05586+Q14957); test: Two electrode voltage clamp, Xenopus laevis oocytes expressing NR1/NR2C; type: cell-based; settings: for IC50: fitted to composite concentration-effect data, read-out: 2C IC50; for Emax: maximal effect of fit, read-out: 2C Max
T2 construct: expressed in transfected cells; host or cells: Xenopus laevis oocytes
T2 sequence (Q14957 20-1233, species assumed, other chains not shown): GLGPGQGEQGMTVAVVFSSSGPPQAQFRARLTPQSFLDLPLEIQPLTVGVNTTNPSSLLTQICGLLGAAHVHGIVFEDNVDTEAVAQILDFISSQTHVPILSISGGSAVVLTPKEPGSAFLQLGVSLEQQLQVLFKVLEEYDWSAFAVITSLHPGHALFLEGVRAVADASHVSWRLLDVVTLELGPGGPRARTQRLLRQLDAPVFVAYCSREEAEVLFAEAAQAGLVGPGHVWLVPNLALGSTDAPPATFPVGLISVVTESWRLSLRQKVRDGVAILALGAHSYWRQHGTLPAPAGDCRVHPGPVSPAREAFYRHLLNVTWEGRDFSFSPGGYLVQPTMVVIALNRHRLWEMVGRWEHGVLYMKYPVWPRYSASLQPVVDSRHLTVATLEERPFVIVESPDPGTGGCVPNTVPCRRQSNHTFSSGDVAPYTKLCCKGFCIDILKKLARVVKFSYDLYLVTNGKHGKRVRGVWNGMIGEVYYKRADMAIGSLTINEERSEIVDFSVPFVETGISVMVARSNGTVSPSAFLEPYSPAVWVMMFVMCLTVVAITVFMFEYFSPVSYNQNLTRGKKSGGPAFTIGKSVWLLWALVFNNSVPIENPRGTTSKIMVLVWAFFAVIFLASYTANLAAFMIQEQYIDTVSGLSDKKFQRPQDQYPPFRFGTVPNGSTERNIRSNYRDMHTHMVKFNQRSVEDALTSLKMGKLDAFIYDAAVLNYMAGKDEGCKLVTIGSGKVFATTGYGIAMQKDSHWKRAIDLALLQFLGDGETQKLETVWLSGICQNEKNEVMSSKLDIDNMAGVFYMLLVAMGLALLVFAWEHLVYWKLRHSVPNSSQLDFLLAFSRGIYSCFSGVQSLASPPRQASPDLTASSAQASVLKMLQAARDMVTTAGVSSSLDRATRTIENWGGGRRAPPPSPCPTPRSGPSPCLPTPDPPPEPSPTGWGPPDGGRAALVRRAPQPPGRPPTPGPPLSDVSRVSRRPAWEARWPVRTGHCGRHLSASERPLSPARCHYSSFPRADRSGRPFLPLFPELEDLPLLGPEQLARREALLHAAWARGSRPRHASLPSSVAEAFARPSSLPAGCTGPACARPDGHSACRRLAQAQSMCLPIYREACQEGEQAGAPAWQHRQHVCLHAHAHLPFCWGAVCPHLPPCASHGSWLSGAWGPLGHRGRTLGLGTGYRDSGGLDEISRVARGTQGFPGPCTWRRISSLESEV
Text: Values are mean+SEM (n=14-20). […] C is the closed level; broken line is the open level.
The Hill slope at both receptors for all analogues was greater than 1, consistent with a cooperative effect of binding at two sites.
as §1

NR1/NR2D = NR1/NR2D (Homo sapiens, UniProt O15399+Q05586); test: Two electrode voltage clamp, Xenopus laevis oocytes expressing NR1/NR2D; settings: for activity at 30 µM: read-out: 2D percent effect at the maximum tested concentration, at 30 μM; for activity at 100 µM: read-out: 2D percent effect at the maximum tested concentration, at 100 μM; for Emax: read-out: 2D Max
NR1/NR2D, sequence (O15399 28-1336, species assumed, other chains not shown): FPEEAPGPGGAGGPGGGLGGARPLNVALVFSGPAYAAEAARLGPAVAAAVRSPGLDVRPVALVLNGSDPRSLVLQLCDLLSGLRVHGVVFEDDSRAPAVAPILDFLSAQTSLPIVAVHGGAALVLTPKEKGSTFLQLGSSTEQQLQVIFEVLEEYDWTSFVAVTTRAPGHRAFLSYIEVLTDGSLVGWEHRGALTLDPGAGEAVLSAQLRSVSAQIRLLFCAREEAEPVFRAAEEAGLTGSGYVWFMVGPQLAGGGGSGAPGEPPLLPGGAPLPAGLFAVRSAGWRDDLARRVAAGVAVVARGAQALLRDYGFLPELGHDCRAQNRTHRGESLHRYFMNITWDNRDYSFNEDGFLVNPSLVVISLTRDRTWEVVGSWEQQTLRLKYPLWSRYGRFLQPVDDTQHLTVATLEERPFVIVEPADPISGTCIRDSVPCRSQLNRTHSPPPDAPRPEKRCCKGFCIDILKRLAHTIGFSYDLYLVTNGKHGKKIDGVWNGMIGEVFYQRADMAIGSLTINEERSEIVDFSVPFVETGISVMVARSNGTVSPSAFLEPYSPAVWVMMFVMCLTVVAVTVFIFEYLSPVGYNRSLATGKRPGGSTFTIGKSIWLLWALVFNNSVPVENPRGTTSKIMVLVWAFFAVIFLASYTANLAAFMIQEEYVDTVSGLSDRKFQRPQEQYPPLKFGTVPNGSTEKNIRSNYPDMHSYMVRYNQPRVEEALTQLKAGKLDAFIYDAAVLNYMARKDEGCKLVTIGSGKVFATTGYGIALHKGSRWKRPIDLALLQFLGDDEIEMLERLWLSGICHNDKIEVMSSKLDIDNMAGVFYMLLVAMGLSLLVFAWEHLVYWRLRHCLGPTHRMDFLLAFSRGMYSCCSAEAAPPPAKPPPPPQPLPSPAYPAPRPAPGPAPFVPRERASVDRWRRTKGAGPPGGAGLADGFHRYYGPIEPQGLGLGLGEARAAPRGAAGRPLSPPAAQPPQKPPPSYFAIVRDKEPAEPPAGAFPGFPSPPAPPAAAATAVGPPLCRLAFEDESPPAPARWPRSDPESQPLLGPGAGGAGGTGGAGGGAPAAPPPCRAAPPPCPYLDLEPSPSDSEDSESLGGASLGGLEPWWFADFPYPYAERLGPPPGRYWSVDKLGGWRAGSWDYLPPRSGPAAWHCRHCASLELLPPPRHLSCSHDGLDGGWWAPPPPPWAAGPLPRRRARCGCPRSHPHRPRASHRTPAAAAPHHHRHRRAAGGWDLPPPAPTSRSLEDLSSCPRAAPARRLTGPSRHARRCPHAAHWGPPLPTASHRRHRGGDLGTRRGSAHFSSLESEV

NR1/NR2B = target: T3, NR1/NR2B (Homo sapiens, UniProt Q05586+Q13224); test: Two electrode voltage clamp, Xenopus laevis oocytes expressing NR1/NR2B; type: cell-based; settings: read-out: 2B percent effect at the maximum tested concentration
T3 construct: expressed in transfected cells; host or cells: Xenopus laevis oocytes
Description: as §1

[1] = read-out: 2C percent effect at the maximum tested concentration

| Structure (SMILES) | activity at 100 µM (NR1/NR2A) [%] | activity at 100 µM (NR1/NR2B) [%] | activity at 100 µM (NR1/NR2C; [1]) [%] | activity at 100 µM (NR1/NR2D) [%] | other results |
| --- | --- | --- | --- | --- | --- |
| COc1cc2c(cc1OC)C(CCc1ccccc1)N(C(=O)c1cccc(F)c1)CC2 (stereo not drawn) [1180-1] | 110 | – | – | – | activity at 30 µM (NR1/NR2C; at 30 μM, read-out: 2C percent effect at the maximum tested concentration): 96%; activity at 30 µM (NR1/NR2D): 90% |
| COc1cc2c(cc1OC)C(COc1ccccc1)N(C(=O)c1ccccc1)CC2 (stereo not drawn) [1180-2] | 100 | 101 | 77 | 81 | – |
| COc1ccc(OCC2c3cc(OC)c(OC)cc3CCN2C(=O)c2cccc(O)c2)cc1 (stereo not drawn) [1180-3] | 126 | 78 | 81 | 79 | – |
| COc1ccc(OCC2c3cc(OC)c(OC)cc3CCN2C(=O)c2ccco2)cc1 (stereo not drawn) [1180-4] | 105 | 69 | 100 | 89 | – |
| COc1ccc(OCC2c3cc(OC)c(OC)cc3CCN2C(=O)c2ccno2)cc1 (stereo not drawn) [1180-5] | 98 | 86 | 83 | 81 | – |
| COc1cccc(OCC2c3cc(OC)c(OC)cc3CCN2C(=O)c2cccc(Cl)c2)c1 (stereo not drawn) [1180-6] | 93 | 97 | 94 | 88 | – |
| COc1cccc(OCC2c3cc(OC)c(OC)cc3CCN2C(=O)c2ccccc2)c1 (stereo not drawn) [1180-7] | 94 | 92 | 75 | 75 | – |
| COc1cc2c(cc1OC)C(COc1ccccc1OC)N(C(=O)c1cccc(Cl)c1)CC2 (stereo not drawn) [1180-8] | 99 | 89 | 73 | 84 | – |
| COc1cc2c(cc1OC)C(COc1ccc(OC(F)(F)F)cc1)N(C(=O)c1cccc(Cl)c1)CC2 (stereo not drawn) [1180-9] | 87 | 97 | 109 | 99 | – |
| COc1ccc(OCC2c3cc(OC)c(OC)cc3CCN2C(=O)c2ccc(Cl)c(Cl)c2)cc1 (stereo not drawn) [1180-10] | – | – | – | – | IC50 (NR1/NR2C): 3 µM; Emax (NR1/NR2C): 134%; IC50 (NR1/NR2D): 8 µM; Emax (NR1/NR2D): 172% |
| COc1ccc(OCC2c3cc(OC)c(OC)cc3CCN2C(=O)c2cccc(I)c2)cc1 (stereo not drawn) [1180-11] | – | – | – | – | activity at 30 µM (NR1/NR2A): 84%; activity at 30 µM (NR1/NR2B): 82%; IC50 (NR1/NR2C): 31 µM; Emax (NR1/NR2C): 431%; activity at 30 µM (NR1/NR2D): 111% |
| COc1ccc(OCC2c3cc(OC)c(OC)cc3CCN2C(=O)c2cccc(Cl)c2Cl)cc1 (stereo not drawn) [1180-12] | – | – | – | – | activity at 30 µM (NR1/NR2A): 97%; activity at 30 µM (NR1/NR2B): 90%; IC50 (NR1/NR2C): 2 µM; Emax (NR1/NR2C): 133%; activity at 30 µM (NR1/NR2D): 109% |
| COc1cc2c(cc1OC)C(COc1ccc(SC)cc1)N(C(=O)c1cccc(Cl)c1)CC2 (stereo not drawn) [1180-13] | 112 | 67 | 97 | 105 | – |
| COc1cc2c(cc1OC)C(COc1ccc(SC)cc1)N(C(=O)c1ccccc1)CC2 (stereo not drawn) [1180-14] | 115 | 128 | 93 | 103 | – |
| COc1ccc(OC[C@@H]2c3cc(OC)c(OC)cc3CCN2C(=O)c2cccc(Cl)c2)cc1 [1180-15] | – | – | – | – | activity at 30 µM (NR1/NR2A): 128%; IC50 (NR1/NR2C): 2.4 µM; Emax (NR1/NR2C): 330%; IC50 (NR1/NR2D): 4 µM; Emax (NR1/NR2D): 364% |
| COc1ccc(OCC2c3cc(OC)c(OC)cc3CCN2C(=O)c2cccc([N+](=O)[O-])c2)cc1 (stereo not drawn) [1180-16] | 50 | 123 | – | – | IC50 (NR1/NR2C): 13 µM; Emax (NR1/NR2C): 267%; IC50 (NR1/NR2D): 16 µM; Emax (NR1/NR2D): 297% |

| Structure (SMILES) | activity at 100 µM (NR1/NR2A) [%] | activity at 100 µM (NR1/NR2B) [%] | activity at 100 µM (NR1/NR2C; [1]) [%] | activity at 100 µM (NR1/NR2D) [%] | other results |
| --- | --- | --- | --- | --- | --- |
| COc1ccc(OCC2c3cc(OC)c(OC)cc3CCN2Cc2ccccc2)cc1 (stereo not drawn) [1180-17] | – | 90 | 95 | 83 | activity at 20 µM (NR1/NR2A; at 20 μM): 50% |
| COc1ccc(OCC2c3cc(OC)c(OC)cc3CCN2C(=O)c2ccc(F)c(Cl)c2)cc1 (stereo not drawn) [1180-18] | 136 | 95 | – | – | IC50 (NR1/NR2C): 6 µM; Emax (NR1/NR2C): 226%; IC50 (NR1/NR2D): 7 µM; Emax (NR1/NR2D): 206% |
| COc1ccc(OCC2c3c(cc(OC)cc3OC)CCN2C(=O)c2ccccc2)cc1 (stereo not drawn) [1180-19] | 63 | 100 | – | – | IC50 (NR1/NR2C): 10 µM; Emax (NR1/NR2C): 160%; IC50 (NR1/NR2D): 9 µM; Emax (NR1/NR2D): 150% |
| COc1ccc(OCC2c3c(cc(OC)cc3OC)CCN2C(=O)c2cccc(Cl)c2)cc1 (stereo not drawn) [1180-20] | 92 | 86 | – | – | IC50 (NR1/NR2C): 11 µM; Emax (NR1/NR2C): 253%; IC50 (NR1/NR2D): 18 µM; Emax (NR1/NR2D): 271% |
| COc1ccc(OCC2c3c(cc(OC)cc3OC)CCN2C(=O)c2cccc(Br)c2)cc1 (stereo not drawn) [1180-21] | 92 | 72 | – | – | IC50 (NR1/NR2C): 7 µM; Emax (NR1/NR2C): 265%; IC50 (NR1/NR2D): 7 µM; Emax (NR1/NR2D): 230% |
| COc1cc2c(cc1OC)C(COc1ccc(OCc3ccccc3)cc1)N(C(=O)c1cccc(Cl)c1)CC2 (stereo not drawn) [1180-22] | 95 | – | 79 | 58 | activity at 20 µM (NR1/NR2B; at 20 μM): 50% |
| COc1ccc(OCC2c3cc(OC)c(OC)cc3CCN2C(=O)N2CCOCC2)cc1 (stereo not drawn) [1180-23] | 140 | 61 | 87 | 78 | – |
| COc1ccc(OCC2c3cc(OC)c(OC)cc3CCN2C(=O)CN2CCOCC2)cc1 (stereo not drawn) [1180-24] | 100 | 96 | 79 | 83 | – |
| COc1ccc(OCC2c3cc4c(cc3CCN2C(=O)c2cccc(Cl)c2)OCO4)cc1 (stereo not drawn) [1180-25] | 96 | 76 | – | – | IC50 (NR1/NR2C): 12 µM; Emax (NR1/NR2C): 188%; IC50 (NR1/NR2D): 7 µM; Emax (NR1/NR2D): 162% |
| COc1ccc(OCC2c3ccc(OC)cc3CCN2C(=O)c2cccc(Cl)c2)cc1 (stereo not drawn) [1180-26] | 93 | 75 | – | – | IC50 (NR1/NR2C): 0.8 µM; Emax (NR1/NR2C): 196%; IC50 (NR1/NR2D): 1 µM; Emax (NR1/NR2D): 185% |
| COc1ccc(OCC2c3ccc(OC)cc3CCN2C(=O)c2cccc(Br)c2)cc1 (stereo not drawn) [1180-27] | 107 | 77 | – | – | IC50 (NR1/NR2C): 1 µM; Emax (NR1/NR2C): 192%; IC50 (NR1/NR2D): 1 µM; Emax (NR1/NR2D): 168% |
| COc1cc2c(cc1OC)CN(C(=O)c1cccc(Cl)c1)CC2 [1180-29] | 75 | 58 | 82 | – | – |
| COc1ccc(OCC2c3cc(OC)c(OC)cc3CCN2C(=O)c2ccccc2C)cc1 (stereo not drawn) [compound 1263] | – | – | 105 | 97 | – |
| COc1ccc(OCC2c3cc(OC)c(OC)cc3CCN2C(=O)c2ccc(OC)cc2)cc1 (stereo not drawn) [compound 1364] | – | 75 | 98 | 93 | – |
| COc1ccc(OCC2c3cc(OC)c(OC)cc3CCN2S(=O)(=O)c2cccc(Cl)c2)cc1 (stereo not drawn) [compound 1511] | – | – | – | – | activity at 10 µM (NR1/NR2C; at 10 μM, read-out: 2C percent effect at the maximum tested concentration): 99%; activity at 10 µM (NR1/NR2D; read-out: 2D percent effect at the maximum tested concentration, at 10 μM): 96% |
| NCC(=O)O [glycine, reference compound] | – | – | – | – | EC50 (NR1/NR2D): 0.2 µM |

Now from value to compound, other results behind:

| activity at 100 µM (NR1/NR2A) [%] | activity at 100 µM (NR1/NR2B) [%] | activity at 100 µM (NR1/NR2C; [1]) [%] | activity at 100 µM (NR1/NR2D) [%] | Structure (SMILES) | other results |
| --- | --- | --- | --- | --- | --- |
| – | – | 104 | 93 | C=C(OC)c1ccc(OCC2c3cc(OC)c(OC)cc3CCN2C(=O)c2ccc(OC)cc2)cc1 (stereo not drawn) [compound 1367] | – |
| – | – | 86 | 88 | COc1ccc(OCC2c3cc(OC)c(OC)cc3CCN2C(=O)Nc2ccccc2)cc1 (stereo not drawn) [compound 1407] | – |
| – | – | 95 | 88 | COc1ccc(OCC2c3cc(OC)c(OC)cc3CCN2C(=O)c2ccc3c(c2)OCO3)cc1 (stereo not drawn) [compound 1408] | – |
| – | – | 76 | 82 | COc1ccc(OCC2c3cc(OC)c(OC)cc3CCN2C(=O)c2ccccc2Cl)cc1 (stereo not drawn) [compound 1409] | – |
| – | – | 94 | 89 | COC(=O)c1ccc(OCC2c3cc(OC)c(OC)cc3CCN2C(=O)c2cccc(Br)c2)cc1 (stereo not drawn) [compound 1410] | – |
| – | – | 84 | 66 | COc1ccc(OCC2c3cc(OC)c(OC)cc3CCN2C(=O)Nc2ccc(Cl)cc2)cc1 (stereo not drawn) [compound 1411] | – |
| – | – | 93 | 79 | COc1ccc(OCC2c3cc(OC)c(OC)cc3CCN2C(=S)Nc2ccccc2)cc1 (stereo not drawn) [compound 1412] | – |
| – | – | 102 | 74 | COc1ccc(OCC2c3cc(OC)c(OC)cc3CCN2C(=S)Nc2cccc(C)c2)cc1 (stereo not drawn) [compound 1413] | – |
| – | – | 99 | 93 | COc1ccc(OCC2c3cc(OC)c(OC)cc3CCN2C(=S)Nc2cccc(F)c2)cc1 (stereo not drawn) [compound 1414] | – |
| – | – | 99 | 87 | COc1ccc(OCC2c3cc(OC)c(OC)cc3CCN2C(=S)Nc2cccc(Cl)c2)cc1 (stereo not drawn) [compound 1415] | – |
| – | – | 96 | 87 | COc1ccc(OCC2c3cc(OC)c(OC)cc3CCN2C(=S)Nc2cccc(Br)c2)cc1 (stereo not drawn) [compound 1416] | – |
| – | 87 | 90 | 87 | COc1ccc(OCC2c3cc(OC)c(OC)cc3CCN2C(=O)c2ccncc2)cc1 (stereo not drawn) [compound 1510] | – |
